The results in this text go back to patent US20120121540A1 (priority 2007, published 2012).

SMILES strings stand for the structures.

The assay in a line: HCV replicon assay (luciferase reporter, ET cell line). Conditions: Hepatitis C virus, HCV replicon luciferase activity in ET cells. It counts as cell-based. The procedure, abridged: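 ET cells carry a stable luciferase-ubiquitin-neo/NS3-5B subgenomic HCV replicon with adaptive mutations. Compounds (0.1 nM to […], 0.5% DMSO) were added 24 h after plating, and luciferase was read 48-72 h later. EC50 came from 10-point 2-fold dilutions fitted to a Hill equation; TC50 was measured in parallel by WST-1.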
In turn, `O=C(NCc1cccs1)c1nc2c(C(F)(F)F)cc(-c3cccc(F)c3)cn2c1-c1cn[nH]c1` [Compound 301, 6-(3-Fluoro-phenyl)-3-(1H-pyrazol-4-yl)-8-trifluoromethyl-imidazo[1,2-a]pyridine-2-carboxylic Acid (thiophen-2-ylmethyl)-amide] registered an inhibition at 10 µM of 79.9%.

With `O=C(c1nc2c(C(F)(F)F)cc(-c3ccoc3)cc2[nH]1)N1CCC(c2ccc(F)cc2)C1` (stereo not shown) [Compound 351, [3-(4-Fluoro-phenyl)-pyrrolidin-1-yl]-(6-furan-3-yl-4-trifluoromethyl-1H-benzoimidazol-2-yl)-methanone], 10 µM produced 52.1% inhibition.

Compound `O=C(Cc1c(C(=O)N2CCC(c3ccc(F)cc3)C2)nc2c(C(F)(F)F)cc(-c3ccoc3)cn12)NCc1ccccc1` (stereo not shown) [Compound 240, N-Benzyl-2-{2-[3-(4-fluoro-phenyl)-pyrrolidine-1-carbonyl]-6-furan-3-yl-8-trifluoromethyl-imidazo[1,2-a]pyridin-3-yl}-acetamide] showed an inhibition at 10 µM of 33.4%.

`O=C(NCc1cccs1)c1[nH]c2c(Cl)cc(-c3ccccc3)cc2c1Cl` [Compound 110, 3,7-Dichloro-5-phenyl-1H-indole-2-carboxylic acid (thiophen-2-ylmethyl)-amide] registered an inhibition at 10 µM of 35.9%.

For `O=C(c1nc2c(C(F)(F)F)cc(-c3ccoc3)cn2c1Cl)N1CC=C(C2=CN=CNC2)CC1` [Compound 619, [3-chloro-6-(furan-3-yl)-8-(trifluoromethyl)imidazo[1,2-a]pyridin-2-yl][4-(1,6-dihydropyrimidin-5-yl)-3,6-dihydropyridin-1(2H)-yl]methanone], the inhibition at 10 µM was 44%.

`Cc1cc(-c2ccccc2)cc2cc(C(=O)NCc3cccs3)nn12` [Compound 114, 7-Methyl-5-phenyl-pyrazolo[1,5-a]pyridine-2-carboxylic acid (thiophen-2-ylmethyl)-amide] displayed an inhibition at 10 µM of 37.9%.

Take `O=C(c1nc2c(C(F)(F)F)cc(-c3ccoc3)cn2c1Cl)N1CCN(c2nccs2)CC1` [Compound 536, (3-Chloro-6-furan-3-yl-8-trifluoromethyl-imidazo[1,2-a]pyridine-2-yl)-(4-thiazol-2-yl-piperazin-1-yl)-methanone]: 10 µM produced 95.8% inhibition.

The compound `CC(=O)c1ccc(C2=CCN(C(=O)c3nc4c(C(F)(F)F)cc(-c5ccoc5)cn4c3Cl)CC2)s1` [Compound 585, 1-{5-[1-(3-Chloro-6-furan-3-yl-8-trifluoromethyl-imidazo[1,2-a]pyridine-2-carbonyl)-1,2,3,6-tetrahydro-pyridin-4-yl]-thiophen-2-yl}-ethanone] had an inhibition at 10 µM of 93.2%.

For `CS(=O)(=O)NC1CN(C(=O)c2cn3cc(-c4ccoc4)cc(C(F)(F)F)c3n2)C1` [Compound 519, N-[1-(6-Furan-3-yl-8-trifluoromethyl-imidazazo[1,2-a]pyridine-2-carbonyl)-azetidin-3-yl]-methanesulfonamide], at 10 µM the inhibition was 84.7%.

Consider `O=C(c1nc2c(C(F)(F)F)cc(-c3cn[nH]c3)cn2c1Br)N1CC=C(c2ccsc2)C1` [Compound 435, [3-Bromo-6-(1H-pyrazol-4-yl)-8-trifluoromethyl-imidazo[1,2-a]pyridin-2-yl]-(3-thiophen-3-yl-2,5-dihydro-pyrrol-1-yl)-methanone], for which the inhibition at 10 µM amounted to 98.8%.

With `O=C(NCc1cccnc1)c1nc2c(C(F)(F)F)cc(-c3ccco3)cn2c1Cl` [Compound 164, 3-Chloro-6-furan-2-yl-8-trifluoromethyl-imidazo[1,2-a]pyridine-2-carboxylic acid (pyridin-3-ylmethyl)-amide], the inhibition at 10 µM came to 70.1%.

`O=C(c1nc2c(C(F)(F)F)cc(-c3cn[nH]c3)cn2c1Br)N1CCC(c2ccccc2F)C1` (stereo not shown) [Compound 449, (3-Bromo-6-(1H-pyrazol-4-yl)-8-trifluoromethyl-imidazo[1,2-a]pyridin-2-yl)-(3-(2-fluoro-phenyl)-pyrrolidin-1-yl)-methanone] gave an inhibition at 10 µM of 97.4%.

Compound `Cc1c(C(=O)NCc2cccs2)nn2c(C)cc(-c3ccccc3)cc12` [Compound 115, 3,7-dimethyl-5-phenyl-pyrazolo[1,5-a]pyridine-2-carboxylic Acid (thiophen-2-ylmethyl)-amide] displayed an inhibition at 10 µM of 55.3%.

On to `O=C(c1nc2c(C(F)(F)F)cc(-c3coc(Cl)c3)cn2c1Cl)N1CCC(c2cccc(F)c2)C1` (stereo not shown) [Compound 633, [3-Chloro-6-(5-chloro-furan-3-yl)-8-trifluoromethyl-imidazo[1,2-a]pyridin-2-yl]-[3-(3-fluoro-phenyl)-pyrrolidin-1-yl]-methanone], for which the inhibition at 10 µM turned out to be 90.2%.

As to `O=C(NCc1cccs1)c1nc2c(C(F)(F)F)cc(-c3cn[nH]c3)cn2c1Br` [Compound 376, 3-Bromo-6-(1H-pyrazol-4-yl)-8-trifluoromethyl-imidazo[1,2-a]pyridine-2-carboxylic Acid(thiophen-2-ylmethyl)-amide], the inhibition at 10 µM was 98.8%.

`O=C(c1nc2c(C(F)(F)F)cc(-c3cccc(F)c3)cn2c1Cl)N1CCC(c2ccc(F)cc2)C1` (stereo not shown) [Compound 234, [3-Chloro-6-(3-fluoro-phenyl)-8-trifluoromethyl-imidazo[1,2-a]pyridin-2-yl]-[3-(4-fluoro-phenyl)-pyrrolidin-1-yl]-methanone] showed an inhibition at 10 µM of 81.8%.

`CN(C)CCNC(=O)[C@H]1[C@@H](c2ccccc2)CCN1C(=O)c1nc2c(C(F)(F)F)cc(-c3ccoc3)cn2c1Cl` (stereo in doubt) [Compound 230, 1-(3-Chloro-6-furan-3-yl-8-trifluoromethyl-imidazo[1,2-a]pyridine-2-carbonyl)-3-phenyl-pyrrolidine-2-carboxylic Acid (2-dimethylamino-ethyl)-amide] displayed an inhibition at 10 µM of 53.4%.

Take `O=C(NCc1cccs1)c1nc2c(C(F)(F)F)cc(-c3cccc(F)c3)cn2c1CN1CCOCC1` [Compound 364, 6-(3-Fluoro-phenyl)-3-morpholin-4-ylmethyl-8-trifluoromethyl-imidazo[1,2-a]pyridine-2-carboxylic Acid (thiophen-2-ylmethyl)-amide]: the inhibition at 10 µM was determined as 5.3%.

In turn, `O=C(c1nc2c(C(F)(F)F)cc(-c3ccccc3)nn2c1Br)N1CCC(c2ccc(F)cc2)C1` (stereo not shown) [Compound 252, (3-Bromo-6-phenyl-8-trifluoromethyl-imidazo[1,2-b]pyridazin-2-yl)-[3-(4-fluoro-phenyl)-pyrrolidin-1-yl]-methanone] came in with an inhibition at 10 µM of 84.8%.

The compound `O=C(c1nc2c(C(F)(F)F)cc(-c3ccoc3)cn2c1Cl)N1CC=C(c2cc[nH]c2)CC1` [Compound 583, (3-Chloro-6-furan-3-yl-8-trifluoromethyl-imid azo[1,2-a]pyridin-2-yl)-[4-(1H-pyrrol-3-yl)-3,6-dihydro-2H-pyridin-1-yl]-methanone] yielded an inhibition at 10 µM of 67.9%.

Compound `O=C(c1nc2c(C(F)(F)F)cc(-c3cn[nH]c3)cn2c1I)N1CCC(c2cccc(F)c2)C1` (stereo not shown) [Compound 659] registered an inhibition at 10 µM of 93.8%.

In turn, `O=C(c1nc2c(C(F)(F)F)cc(-c3cn[nH]c3)cn2c1Br)N1CC=C(c2ccoc2)C1` [Compound 436, [3-Bromo-6-(1H-pyrazol-4-yl)-8-trifluoromethyl-imidazo[1,2-a]pyridin-2-yl]-(3-furan-3-yl-2,5-dihydro-pyrrol-1-yl)-methanone] yielded an inhibition at 10 µM of 98%.

One may read the inhibition as how much of the control response was suppressed. Higher therefore signals a response far below the control.
